Data reported in patent publication US20260048142A1, “METAL-CHELATED POLYPHENOL COMPLEX NANOPARTICLE, DRUG-LIPID PARTICLE, PREPARATION METHODS FOR THE SAME, AND USES THEREOF” (priority 2022, published 2026).
Where two headings read alike, the source gives them in different places.

System: 293T cells
Assay: CCK8 cell activity, median lethal dose IC50
Type: cell-based, Human
Description: After incubating 293T cells with different concentrations of the metal-chelated polyphenol complex ([…]), cationic lipid (DOTAP, 0, 0.1, 0.3, 0.9, 2.7, 8.1, 24.3, 72.9, 218.7 μM) and ionizable lipid (ALC0315, 0, 0.1, 0.3, 0.9, 2.7, 8.1, 24.3, 72.9, 218.7 μM) for 48 hours, cell activity was detected using a CCK8 activity detection kit, and the median lethal dose IC50 of the metal-chelated polyphenol complex, cationic lipid (DOTAP) and ionizable lipid (ALC0315) for 293T cells was calculated respectively.
• Cell culture: cells were cultivated with DMEM culture medium containing 10% FBS and 1% Penicillin-Streptomycin Solution, and wait until the cell density reached 80%-90% of the culture bottle; • The remaining culture medium in the culture bottle was washed with PBS, the culture bottle was added with trypsin, and quickly transferred to a 37° C. incubator containing 5% CO2. During close observation, when the cells become slightly round, culture medium was added to stop digestion. The mixture was transferred to a centrifuge tube, centrifuged at 1500 RPM for 5 minutes, and the cells were resuspended with fresh culture medium; • Counting: the cell suspension was diluted to 10,0000 cells per 1 mL according to the purpose, 100 μL per well in a 96-well plate, and at least 5 replicates per group. Drug was added after 24 h of incubation at 37° C., 5% CO2; • After drug incubation for 48 h, 10% CCK8 was added, incubated for 1-3 h, and absorbance was measured by an ELISA reader at 450 nm;
[formula] • IC50 calculation method: with survival rate as the ordinate and drug concentration as the abscissa, IC50 was calculated by Graphpad using [Inhibitor] vs. normalized response-Variable slope analysis method.
The calculation method of IC50 is as described in Example 10.

Q: How did the IC50 (Homo sapiens, HEK-293T, 48 h) turn out when CCCCCCCCC(CCCCCC)C(=O)OCCCCCCN(CCCCO)CCCCCCOC(=O)C(CCCCCC)CCCCCCCC (stereo not shown) [ALC0315] was run?
A: 115 µM

Q: And the IC50 (Homo sapiens, HEK-293T, Table 4-3, median lethal dose for 293T cells, CCK8, read-out: IC50)?
A: 115 µM

Q: For CCCCCCCC/C=C\CCCCCCCC(=O)OCC(C[N+](C)(C)C)OC(=O)CCCCCCC/C=C\CCCCCCCC (stereo not shown) [DOTAP, N-(2,3-dioleoyloxy) propyl)-N,N, N-trimethylammonium chloride], which IC50 (Table 2-2, median lethal dose for 293T cells, 48 hours, CCK8, read-out: IC50) is on record?
A: 25.7 µM

Q: What about the IC50 (Table 4-3, median lethal dose for 293T cells, CCK8, read-out: IC50) of the same molecule?
A: 25.7 µM
